Values belong to the molecule of their own block, whether it stands above or below them.
Tests used:
[1] = molecular target: Dual specificity mitogen-activated protein kinase kinase 1 (Homo sapiens, UniProt Q02750)
Description: Inhibition of MEK1-mediated ERK2 T202/Y204 phosphorylation using biotinylated MBP as substrate preincubated for 30 mins measured after 100 mins by cRAF-MEK-ERK enzyme coupled assay

[2] = molecular target: Dual specificity mitogen-activated protein kinase kinase; MEK1/2 (Homo sapiens, UniProt P36507+Q02750)
Description: Inhibition of MEK-mediated ERK T202/Y204 phosphorylation in human MDA-MB-231T cells after 1 hr by immunoblotting

Mus musculus [3] = test: Inhibition of MEK-mediated ERK T202/Y204 phosphorylation in human MDA-MB-231T cells xenografted in nude NCr mouse tumor at 30 mg/kg, po after 2 hrs by immunoblotting; format: functional
Mus musculus [4] = test: Inhibition of MEK-mediated ERK T202/Y204 phosphorylation in nude NCr mouse brain xenografted with human MDA-MB-231T cells at 30 mg/kg, po after 24 hrs by immunoblotting; format: functional
[5] = Drug uptake in tumor of nude NCr mouse xenografted with human MDA-MB-231T cells at 30 mg/kg, po measured after 24 hrs by LC-MS analysis; format: ADME, organism-based, Neoplasm; parameters: dose 30 mg/kg, route oral; settings: read-out: Drug uptake
[6] = Drug uptake in brain of nude NCr mouse xenografted with human MDA-MB-231T cells at 30 mg/kg, po measured after 2 hrs by LC-MS analysis; format: ADME, organism-based; parameters: dose 30 mg/kg, route oral; settings: read-out: Drug uptake
[7] = Drug uptake in tumor of nude NCr mouse xenografted with human MDA-MB-231T cells at 30 mg/kg, po measured after 2 hrs by LC-MS analysis; format: ADME, organism-based, Neoplasm; parameters: dose 30 mg/kg, route oral; settings: read-out: Drug uptake
[8] = Drug metabolism in rat liver microsomes at 15 uM after 30 mins; format: ADME, Microsome; settings: read-out: Drug metabolism
[9] = Apparent permeability across MDCK cells; format: ADME, cell-based, Canis lupus familiaris; settings: dog
[10] = Clearance in Sprague-Dawley rat at 5 mg/kg, po; format: ADME, organism-based; parameters: dose 5 mg/kg, route oral; settings: in vivo
Mus musculus [11] = test: Inhibition of MEK-mediated ERK T202/Y204 phosphorylation in nude NCr mouse brain xenografted with human MDA-MB-231T cells at 30 mg/kg, po after 2 hrs by immunoblotting; format: functional
[12] = Half life in Sprague-Dawley rat at 5 mg/kg, po; format: ADME, organism-based; parameters: dose 5 mg/kg, route oral; settings: in vivo
[13] = Oral bioavailability in Sprague-Dawley rat at 5 mg/kg; format: ADME, organism-based; settings: in vivo
Rattus norvegicus [14] = test: Dose normalised AUC (0 to t) in Sprague-Dawley rat at 5 mg/kg, po; format: ADME, organism-based; parameters: dose 5 mg/kg, route oral; settings: in vivo
[15] = Plasma concentration in nude NCr mouse xenografted with human MDA-MB-231T cells at 30 mg/kg, po measured after 24 hrs by LC-MS analysis; format: ADME, organism-based; parameters: dose 30 mg/kg, route oral
Mus musculus [16] = test: Inhibition of MEK-mediated ERK T202/Y204 phosphorylation in human MDA-MB-231T cells xenografted in nude NCr mouse tumor at 30 mg/kg, po after 24 hrs by immunoblotting; format: functional
Mus musculus [17] = test: Inhibition of MEK-mediated ERK T202/Y204 phosphorylation in po dosed nude NCr mouse brain xenografted with human MDA-MB-231T cells from 2 to 24 hrs by immunoblotting; format: functional
[18] = Plasma concentration in nude NCr mouse xenografted with human MDA-MB-231T cells at 30 mg/kg, po measured after 2 hrs by LC-MS analysis; format: ADME, organism-based; parameters: dose 30 mg/kg, route oral
[19] = Drug uptake in brain of nude NCr mouse xenografted with human MDA-MB-231T cells at 30 mg/kg, po measured after 24 hrs by LC-MS analysis; format: ADME, organism-based; parameters: dose 30 mg/kg, route oral; settings: read-out: Drug uptake
Brain = test: Drug metabolism in brain of nude NCr mouse xenografted with human MDA-MB-231T cells assessed as 3,4-difluoro-2-(2-fluoro-4-iodophenylamino)benzoic acid level at 100 mg/kg, po measured after 24 hrs by LC-MS analysis; format: ADME, organism-based; parameters: dose 100 mg/kg, route oral; settings: in vivo
[20] = Protein binding in serum; format: ADME, cell-free
[21] = Plasma concentration in nude NCr mouse xenografted with human MDA-MB-231T cells at 20 mg/kg, po measured after 24 hrs by LC-MS analysis; format: ADME, organism-based; parameters: dose 20 mg/kg, route oral
[22] = Drug uptake in tumor of nude NCr mouse xenografted with human MDA-MB-231T cells at 5 mg/kg, po measured after 24 hrs by LC-MS analysis; format: ADME, organism-based; parameters: dose 5 mg/kg, route oral; settings: read-out: Drug uptake
[23] = Plasma concentration in nude NCr mouse xenografted with human MDA-MB-231T cells at 100 mg/kg, po measured after 24 hrs by LC-MS analysis; format: ADME, organism-based; parameters: dose 100 mg/kg, route oral
[24] = Drug uptake in brain of nude NCr mouse xenografted with human MDA-MB-231T cells at 5 mg/kg, po measured after 24 hrs by LC-MS analysis; format: ADME, organism-based; parameters: dose 5 mg/kg, route oral; settings: read-out: Drug uptake
Mus musculus [25] = test: Inhibition of MEK-mediated ERK T202/Y204 phosphorylation in human MDA-MB-231T cells xenografted in nude NCr mouse tumor at 100 mg/kg, po after 24 hrs by immunoblotting; format: functional
Mus musculus [26] = test: Inhibition of MEK-mediated ERK T202/Y204 phosphorylation in nude NCr mouse brain xenografted with human MDA-MB-231T cells at 10 mg/kg, po after 24 hrs by immunoblotting; format: functional
[27] = Plasma concentration in nude NCr mouse xenografted with human MDA-MB-231T cells at 10 mg/kg, po measured after 24 hrs by LC-MS analysis; format: ADME, organism-based; parameters: dose 10 mg/kg, route oral
[28] = Antitumor activity against human MDA-MB-231T cells xenografted in athymic nude NCr mouse assessed as tumor growth inhibition at 1 mg/kg administered qd for 14 days relative to control; format: functional; settings: 336 h, read-out: GI
Salmonella typhimurium = test: Mutagenic activity in Salmonella typhimurium by Ames test; format: toxicity, organism-based; settings: salmonella enterica subsp. enterica serovar typhimurium
[29] = Drug uptake in brain of nude NCr mouse xenografted with human MDA-MB-231T cells at 100 mg/kg, po measured after 24 hrs by LC-MS analysis; format: ADME, organism-based; parameters: dose 100 mg/kg, route oral; settings: read-out: Drug uptake
Rattus norvegicus [30] = test: Toxicity against po dosed rat assessed as adverse effect administered as subchronical dose; format: organism-based; settings: in vivo
[31] = Drug uptake in tumor of nude NCr mouse xenografted with human MDA-MB-231T cells at 10 mg/kg, po measured after 24 hrs by LC-MS analysis; format: ADME, organism-based, Neoplasm; parameters: dose 10 mg/kg, route oral; settings: read-out: Drug uptake
Mus musculus [32] = test: Inhibition of MEK-mediated ERK T202/Y204 phosphorylation in human MDA-MB-231T cells xenografted in nude NCr mouse tumor at 5 mg/kg, po after 24 hrs by immunoblotting; format: functional
[33] = Drug uptake in brain of nude NCr mouse xenografted with human MDA-MB-231T cells at 20 mg/kg, po measured after 24 hrs by LC-MS analysis; format: ADME, organism-based; parameters: dose 20 mg/kg, route oral; settings: read-out: Drug uptake
[34] = Antitumor activity against human MDA-MB-231T cells xenografted in athymic nude NCr mouse assessed as tumor growth inhibition at 3 mg/kg administered qd for 14 days relative to control; format: functional; settings: 336 h, read-out: GI
Mus musculus [35] = test: Inhibition of MEK-mediated ERK T202/Y204 phosphorylation in nude NCr mouse brain xenografted with human MDA-MB-231T cells at 5 mg/kg, po after 24 hrs by immunoblotting; format: functional
[36] = Drug uptake in tumor of nude NCr mouse xenografted with human MDA-MB-231T cells at 20 mg/kg, po measured after 24 hrs by LC-MS analysis; format: ADME, organism-based, Neoplasm; parameters: dose 20 mg/kg, route oral; settings: read-out: Drug uptake
Mus musculus [37] = test: Inhibition of MEK-mediated ERK T202/Y204 phosphorylation in human MDA-MB-231T cells xenografted in nude NCr mouse tumor at 10 mg/kg, po after 24 hrs by immunoblotting; format: functional
Mus musculus [38] = test: Inhibition of MEK-mediated ERK T202/Y204 phosphorylation in human MDA-MB-231T cells xenografted in po dosed nude NCr mouse tumor after 24 hrs by immunoblotting; format: functional
Mus musculus [39] = test: Inhibition of MEK-mediated ERK T202/Y204 phosphorylation in nude NCr mouse brain xenografted with human MDA-MB-231T cells at 100 mg/kg, po after 24 hrs by immunoblotting; format: functional
Mus musculus [40] = test: Inhibition of MEK-mediated ERK T202/Y204 phosphorylation in nude NCr mouse brain xenografted with human MDA-MB-231T cells at 20 mg/kg, po after 24 hrs by immunoblotting; format: functional
[41] = Drug uptake in tumor of nude NCr mouse xenografted with human MDA-MB-231T cells at 100 mg/kg, po measured after 24 hrs by LC-MS analysis; format: ADME, organism-based, Neoplasm; parameters: dose 100 mg/kg, route oral; settings: read-out: Drug uptake
[42] = Plasma concentration in nude NCr mouse xenografted with human MDA-MB-231T cells at 5 mg/kg, po measured after 24 hrs by LC-MS analysis; format: ADME, organism-based; parameters: dose 5 mg/kg, route oral
[43] = Plasma concentration in athymic nude NCr mouse xenografted with human MDA-MB-231T cells at 3 mg/kg administered qd for 14 days; format: ADME, organism-based; parameters: dose 3 mg/kg
[44] = Drug uptake in brain of nude NCr mouse xenografted with human MDA-MB-231T cells at 10 mg/kg, po measured after 24 hrs by LC-MS analysis; format: ADME, organism-based; parameters: dose 10 mg/kg, route oral; settings: read-out: Drug uptake
Mus musculus [45] = test: Inhibition of MEK-mediated ERK T202/Y204 phosphorylation in human MDA-MB-231T cells xenografted in nude NCr mouse tumor at 20 mg/kg, po after 24 hrs by immunoblotting; format: functional
[46] = Drug metabolism in human liver microsomes at 15 uM after 30 mins; format: ADME, Microsome; settings: read-out: Drug metabolism

Dual specificity mitogen-activated protein kinase kinase 1, sequence (Q02750 whole entry): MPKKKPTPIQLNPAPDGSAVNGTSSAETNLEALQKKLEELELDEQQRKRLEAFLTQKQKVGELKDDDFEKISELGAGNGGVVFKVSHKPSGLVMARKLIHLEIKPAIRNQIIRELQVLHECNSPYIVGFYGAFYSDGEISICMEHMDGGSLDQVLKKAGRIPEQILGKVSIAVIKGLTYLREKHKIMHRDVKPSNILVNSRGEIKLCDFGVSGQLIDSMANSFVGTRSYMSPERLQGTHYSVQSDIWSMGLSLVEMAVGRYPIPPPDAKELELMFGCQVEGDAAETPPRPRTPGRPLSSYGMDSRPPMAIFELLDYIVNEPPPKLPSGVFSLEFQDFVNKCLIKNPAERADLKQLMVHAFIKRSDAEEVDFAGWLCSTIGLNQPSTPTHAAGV

Compound: O=C(NCCC(O)CO)c1ccc(F)c(F)c1Nc1ccc(I)cc1F (stereo unspecified)
IC50 [1]: 801 nM
IC50 [2]: 128 nM

Compound: NCC1(O)CN(C(=O)c2ccc(F)c(F)c2Nc2ccc(I)cc2F)C1
inhibition in vivo at 30 mg/kg (Mus musculus [3]): 27%
inhibition in vivo at 30 mg/kg (Mus musculus [4]): 17%
concentration at 24 h [5]: 26800 nM
concentration at 2 h [6]: 730 nM
concentration at 2 h [7]: 7360 nM
metabolised at 0.5 h, 15 µM [8]: 16.2%
Papp [9]: 4.3 ×10⁻⁶ cm/s
CL/F [10]: 12.6 mL/min/kg
inhibition in vivo at 30 mg/kg (Mus musculus [11]): 23%
half-life [12]: 9.1 h
bioavailability [13]: 78%
AUCt/dose (Rattus norvegicus [14]): 1.57 µM·h/mg/kg
concentration at 24 h [15]: 30 nM
inhibition in vivo at 30 mg/kg (Mus musculus [16]): 44%
IC50 [1]: 6.6 nM
ED50 (Mus musculus [17]): > 30 mg/kg
concentration at 2 h [18]: 2400 nM
IC50 [2]: 57 nM
concentration at 24 h [19]: 1240 nM

Compound: O=C(c1ccc(F)c(F)c1Nc1ccc(I)cc1F)N1CC(O)(CN2CCOCC2)C1
IC50 [1]: 1710 nM
IC50 [2]: 331 nM

Compound: O=C(c1ccc(F)c(F)c1Nc1ccc(I)cc1F)N1CC(O)(CN2CCCC2)C1
IC50 [1]: 7.6 nM
IC50 [2]: 50 nM

Compound: CCNCC1(O)CN(C(=O)c2ccc(F)c(F)c2Nc2ccc(I)cc2F)C1
metabolised at 0.5 h, 15 µM [8]: 31.5%
Papp [9]: 20.7 ×10⁻⁶ cm/s
CL/F [10]: 35 mL/min/kg
half-life [12]: 5.4 h
bioavailability [13]: 101%
AUCt/dose (Rattus norvegicus [14]): 0.85 µM·h/mg/kg
metabolised at 0.5 h, 15 µM [46]: 46.3%

Further lines, with some results ahead:

IC50 [1]: 5.1 nM
IC50 [2]: 14 nM
Compound: CN(C)CC1(O)CN(C(=O)c2ccc(F)c(F)c2Nc2ccc(I)cc2F)C1

Drug uptake (Brain): Not Active
Activity [20]: 94%
concentration at 24 h [21]: 100 nM
concentration at 24 h [22]: 530 nM
concentration at 24 h [23]: 120 nM
concentration at 24 h [24]: < 4 nM
concentration at 24 h [27]: 100 nM
concentration at 24 h [29]: 220 nM
metabolised at 0.5 h, 15 µM [8]: 22.4%
concentration at 24 h [31]: 1990 nM
concentration at 24 h [33]: < 4 nM
Papp [9]: 10.5 ×10⁻⁶ cm/s
concentration at 24 h [36]: 3590 nM
CL/F [10]: 59.4 mL/min/kg
concentration at 24 h [41]: 22800 nM
half-life [12]: 6.1 h
bioavailability [13]: 77%
AUCt/dose (Rattus norvegicus [14]): 0.35 µM·h/mg/kg
concentration at 24 h [42]: < 4 nM
concentration at 336 h [43]: 130 nM
IC50 [1]: 0.9 nM
concentration at 24 h [44]: < 4 nM
metabolised at 0.5 h, 15 µM [46]: 13.8%
IC50 [2]: 0.2 nM
Compound: O=C(c1ccc(F)c(F)c1Nc1ccc(I)cc1F)N1CC(O)([C@@H]2CCCCN2)C1 [COBIMETINIB]
inhibition in vivo at 100 mg/kg (Mus musculus [25]): 87%
inhibition in vivo at 10 mg/kg (Mus musculus [26]): 7%
inhibition in vivo at 1 mg/kg [28]: 60%
Activity (Salmonella typhimurium): Non-toxic
Activity (Rattus norvegicus [30]): Non-toxic
inhibition in vivo at 5 mg/kg (Mus musculus [32]): 16%
inhibition in vivo at 3 mg/kg [34]: 93%
inhibition in vivo at 5 mg/kg (Mus musculus [35]): 8%
inhibition in vivo at 10 mg/kg (Mus musculus [37]): 45%
ED90 (Mus musculus [38]): 39.7 mg/kg
inhibition in vivo at 100 mg/kg (Mus musculus [39]): 0%
inhibition in vivo at 20 mg/kg (Mus musculus [40]): 2%
inhibition in vivo at 20 mg/kg (Mus musculus [45]): 75%

— ChEMBL document CHEMBL2146470, “Novel Carboxamide-Based Allosteric MEK Inhibitors: Discovery and Optimization Efforts toward XL518 (GDC-0973)” (ACS Med Chem Lett, 2012)
